From patent US11053251B2, “GPR35 modulators” (Prometheus Biosciences, Inc., priority 2019, dated 2021)
pEC50: −log10 of the molar value.

Molecular target: Human GPR35 (Homo sapiens, UniProt Q9HC97, S294R)
Test: Alternative Beta-Arrestin Assay (JumpIn 294R Tango U2OS cells, LiveBLAzer-FRET B/G)
Assay type: cell-based
Details: Human GPR35 expressing JumpIn 294R Tango U2OS cells, 5 hours treatment
Description: Human GPR35 expressing JumpIn (Thermo Fisher) 294R Tango U2OS cells were plated in 384-well format in clear bottom plates at a cell density of 10,000 cells/well and allowed to grow overnight. The next day, cells were treated with serially diluted test compounds for 5 hours. LiveBLAzer-FRET B/G (CCF4-AM) detection reagents were then added and cells were allowed to incubate for 2 hours before reading plates on a BioTek Cytation 5 plate reader. Zaprinast was used as a positive control for dose-response curves. In order to determine EC50 values, data w ere fit to a four-parameter dose-response curves.

Chain of Human GPR35 (Q9HC97 whole entry S294R): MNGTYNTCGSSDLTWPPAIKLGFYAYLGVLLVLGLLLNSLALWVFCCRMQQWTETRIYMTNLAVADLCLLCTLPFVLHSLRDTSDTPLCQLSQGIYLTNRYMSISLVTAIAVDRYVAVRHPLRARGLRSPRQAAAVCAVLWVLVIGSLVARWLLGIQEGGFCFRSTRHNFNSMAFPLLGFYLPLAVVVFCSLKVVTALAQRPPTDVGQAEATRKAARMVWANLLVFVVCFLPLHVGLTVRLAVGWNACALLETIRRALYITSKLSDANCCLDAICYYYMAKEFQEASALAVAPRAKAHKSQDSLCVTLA

Row | pEC50 | SMILES
1 | ≥ 5.00 | CCOc1cc(-c2nc(C(=O)O)co2)ccc1-c1nc2[nH]nnc2c(=O)[nH]1 [Compound 188, 2-(3-ethoxy-4-(7-oxo-6,7-dihydro-3H-[1,2,3]triazolo[4,5-d]pyrimidin-5-yl)phenyl)oxazole-4-carboxylic acid]
2 | ≥ 5.00 | CCOc1cc(-c2ccc(C(=O)O)o2)ccc1-c1nc2[nH]nnc2c(=O)[nH]1 [Compound 189, 5-(3-ethoxy-4-(7-oxo-6,7-dihydro-3H-[1,2,3]triazolo[4,5-d]pyrimidin-5-yl)phenyl)furan-2-carboxylic acid]
3 | ≥ 5.00 | CCOc1cc(-c2cc(C(=O)O)cs2)ccc1-c1nc2[nH]nnc2c(=O)[nH]1 [Compound 190, 5-(3-ethoxy-4-(7-oxo-6,7-dihydro-3H-[1,2,3]triazolo[4,5-d]pyrimidin-5-yl)phenyl)thiophene-3-carboxylic acid]
4 | ≥ 5.00 | CCOC(=O)c1ccc(-c2ccc(-c3nc4[nH]nnc4c(=O)[nH]3)c(OCC)c2)cc1 [Compound 191, ethyl 3′-ethoxy-4′-(7-oxo-6,7-dihydro-3H-[1,2,3]triazolo[4,5-d]pyrimidin-5-yl)-[1,1′-biphenyl]-4-carboxylate]
5 | ≥ 5.00 | CCOc1cc(-c2cc(C(=O)O)n(C)c2)ccc1-c1nc2[nH]nnc2c(=O)[nH]1 [Compound 192, 4-(3-ethoxy-4-(7-oxo-6,7-dihydro-3H-[1,2,3]triazolo[4,5-d]pyrimidin-5-yl)phenyl)-1-methyl-1H-pyrrole-2-carboxylic acid]
6 | ≥ 5.00 | CCOc1cc(-c2ccc(C(=O)OCc3oc(=O)oc3C)cc2)ccc1-c1nc2nn[nH]c2c(=O)[nH]1 [Compound 193, (5-Methyl-2-oxo-1,3-dioxol-4-yl)methyl 3′-ethoxy-4′-(7-oxo-6,7-dihydro-3H-[1,2,3]triazolo[4,5-d]pyrimidin-5-yl)-[1,1′-biphenyl]-4-carboxylate]
7 | ≥ 5.00 | O=C(O)c1ccc(-c2ccc(-c3nc4[nH]nnc4c(=O)[nH]3)c(OC3CCCC3)c2)cc1 [Compound 194, 3′-(Cyclopentyloxy)-4′-(7-oxo-6,7-dihydro-3H-[1,2,3]triazolo[4,5-d]pyrimidin-5-yl)-[1,1′-biphenyl]-4-carboxylic acid]
8 | ≥ 5.00 | CCOc1cc(-c2nc3[nH]nnc3c(=O)[nH]2)ccc1-c1ccc(C(=O)O)cc1 [Compound 195, 2′-Ethoxy-4′-(7-oxo-6,7-dihydro-3H-[1,2,3]triazolo[4,5-d]pyrimidin-5-yl)-[1,1′-biphenyl]-4-carboxylic acid]
9 | ≥ 5.00 | COc1cc(-c2nc3[nH]nnc3c(=O)[nH]2)cc(OC)c1-c1ccc(C(=O)O)cc1 [Compound 196, 2′,6′-Dimethoxy-4′-(7-oxo-6,7-dihydro-3H-[1,2,3]triazolo[4,5-d]pyrimidin-5-yl)-[1,1′-biphenyl]-4-carboxylic acid]
10 | ≥ 5.00 | CCOc1cc(-c2cccc(N)c2)ccc1-c1nc2[nH]nnc2c(=O)[nH]1 [Compound 197, 5-(3′-Amino-3-ethoxy-[1,1′-biphenyl]-4-yl)-3,6-dihydro-7H-[1,2,3]triazolo[4,5-d]pyrimidin-7-one]
11 | ≥ 5.00 | CCOc1cc(-c2cc(O)cc(C(=O)O)c2)ccc1-c1nc2[nH]nnc2c(=O)[nH]1 [Compound 198, 3′-Ethoxy-5-hydroxy-4′-(7-oxo-6,7-dihydro-3H-[1,2,3]triazolo[4,5-d]pyrimidin-5-yl)-[1,1′-biphenyl]-3-carboxylic acid]
12 | ≥ 5.00 | O=C(O)c1cc(O)cc(-c2ccc(-c3nc4[nH]nnc4c(=O)[nH]3)c(OC3CCCC3)c2)c1 [Compound 199, 3′-(Cyclopentyloxy)-5-hydroxy-4′-(7-oxo-6,7-dihydro-3H-[1,2,3]triazolo[4,5-d]pyrimidin-5-yl)-[1,1′-biphenyl]-3-carboxylic acid]
13 | ≥ 5.00 | O=C(O)c1cc(-c2ccc(-c3nc4[nH]nnc4c(=O)[nH]3)c(OC3CCCC3)c2)ccc1O [Compound 200, 3′-(Cyclopentyloxy)-4-hydroxy-4′-(7-oxo-6,7-dihydro-3H-[1,2,3]triazolo[4,5-d]pyrimidin-5-yl)-[1,1′-biphenyl]-3-carboxylic acid]
14 | ≥ 5.00 | O=C(O)c1ccc(-c2ccc(-c3nc4[nH]nnc4c(=O)[nH]3)c(OC3CCCC3)c2)cc1O [Compound 201, 3′-(Cyclopentyloxy)-3-hydroxy-4′-(7-oxo-6,7-dihydro-3H-[1,2,3]triazolo[4,5-d]pyrimidin-5-yl)-[1,1′-biphenyl]-4-carboxylic acid]
15 | ≥ 5.00 | O=C(O)c1ccc(-c2ccc(-c3nc4[nH]nnc4c(=O)[nH]3)c(OC3CCCC3)c2)c(O)c1 [Compound 202, 3′-(Cyclopentyloxy)-2-hydroxy-4′-(7-oxo-6,7-dihydro-3H-[1,2,3]triazolo[4,5-d]pyrimidin-5-yl)-[1,1′-biphenyl]-4-carboxylic acid]
16 | ≥ 5.00 | CCOc1cc(-c2cc(F)c(O)c(F)c2)ccc1-c1nc2[nH]nnc2c(=O)[nH]1 [Compound 203, 5-(3-Ethoxy-3′,5′-difluoro-4′-hydroxy-[1,1′-biphenyl]-4-yl)-3,6-dihydro-7H-[1,2,3]triazolo[4,5-d]pyrimidin-7-one]

Row | pEC50 | SMILES
17 | ≥ 5.00 | CCOc1cc(-c2ccc(C(=O)O)c(N)c2)ccc1-c1nc2[nH]nnc2c(=O)[nH]1 [Compound 204, 3-Amino-3′-ethoxy-4′-(7-oxo-6,7-dihydro-3H-[1,2,3]triazolo[4,5-d]pyrimidin-5-yl)-[1,1′-biphenyl]-4-carboxylic acid]
18 | ≥ 5.00 | CCOc1cc(-c2ccc(C(=O)O)c(F)c2)ccc1-c1nc2[nH]nnc2c(=O)[nH]1 [Compound 205, 3′-Ethoxy-3-fluoro-4′-(7-oxo-6,7-dihydro-3H-[1,2,3]triazolo[4,5-d]pyrimidin-5-yl)-[1,1′-biphenyl]-4-carboxylic acid]
19 | ≥ 5.00 | CCOc1cc(-c2ccc(C(=O)O)c(OC)c2)ccc1-c1nc2[nH]nnc2c(=O)[nH]1 [Compound 206, 3′-Ethoxy-3-methoxy-4′-(7-oxo-6,7-dihydro-3H-[1,2,3]triazolo[4,5-d]pyrimidin-5-yl)-[1,1′-biphenyl]-4-carboxylic acid]
20 | ≥ 5.00 | CCOc1cc(-c2ccc(C(=O)O)c(C)c2)ccc1-c1nc2[nH]nnc2c(=O)[nH]1 [Compound 207, 3′-Ethoxy-3-methyl-4′-(7-oxo-6,7-dihydro-3H-[1,2,3]triazolo[4,5-d]pyrimidin-5-yl)-[1,1′-biphenyl]-4-carboxylic acid]
21 | ≥ 5.00 | CCOc1cc(-c2ccc(C(=O)O)c(O)c2)ccc1-c1nc2[nH]nnc2c(=O)[nH]1 [Compound 208, 3′-Ethoxy-3-hydroxy-4′-(7-oxo-6,7-dihydro-3H-[1,2,3]triazolo[4,5-d]pyrimidin-5-yl)-[1,1′-biphenyl]-4-carboxylic acid]
22 | ≥ 5.00 | O=C(O)c1cccc(-c2ccc(-c3nc4[nH]nnc4c(=O)[nH]3)c(OC3CCCC3)c2)c1O [Compound 209, 3′-(Cyclopentyloxy)-2-hydroxy-4′-(7-oxo-6,7-dihydro-3H-[1,2,3]triazolo[4,5-d]pyrimidin-5-yl)-[1,1′-biphenyl]-3-carboxylic acid]
23 | ≥ 5.00 | O=C(O)c1ccc(O)c(-c2ccc(-c3nc4[nH]nnc4c(=O)[nH]3)c(OC3CCCC3)c2)c1 [Compound 210, 3′-(Cyclopentyloxy)-6-hydroxy-4′-(7-oxo-6,7-dihydro-3H-[1,2,3]triazolo[4,5-d]pyrimidin-5-yl)-[1,1′-biphenyl]-3-carboxylic acid]
24 | ≥ 5.00 | CCOc1cc(-c2ccc(OCC(=O)O)cc2)ccc1-c1nc2[nH]nnc2c(=O)[nH]1 [Compound 211, 2-((3′-Ethoxy-4′-(7-oxo-6,7-dihydro-3H-[1,2,3]triazolo[4,5-d]pyrimidin-5-yl)-[1,1′-biphenyl]-4-yl)oxy)acetic acid]
25 | ≥ 5.00 | CCOc1cc(-c2cccc(OC(C)(C)C(=O)O)c2)ccc1-c1nc2[nH]nnc2c(=O)[nH]1 [Compound 213, 2-((3′-Ethoxy-4′-(7-oxo-6,7-dihydro-3H-[1,2,3]triazolo[4,5-d]pyrimidin-5-yl)-[1,1′-biphenyl]-3-yl)oxy)-2-methylpropanoic acid]
26 | ≥ 5.00 | CCOc1cc(-c2cccc(NCC(=O)O)c2)ccc1-c1nc2[nH]nnc2c(=O)[nH]1 [Compound 214, (3′-Ethoxy-4′-(7-oxo-6,7-dihydro-3H-[1,2,3]triazolo[4,5-d]pyrimidin-5-yl)-[1,1′-biphenyl]-3-yl)glycine]
27 | ≥ 5.00 | CCOc1cc(-c2ccc(NCC(=O)O)cc2)ccc1-c1nc2[nH]nnc2c(=O)[nH]1 [Compound 215, (3′-Ethoxy-4′-(7-oxo-6,7-dihydro-3H-[1,2,3]triazolo[4,5-d]pyrimidin-5-yl)-[1,1′-biphenyl]-4-yl)glycine]
28 | ≥ 5.00 | O=C(O)COc1cccc(-c2ccc(-c3nc4[nH]nnc4c(=O)[nH]3)c(OC3CCCC3)c2)c1 [Compound 216, 2-((3′-(Cyclopentyloxy)-4′-(7-oxo-6,7-dihydro-3H-[1,2,3]triazolo[4,5-d]pyrimidin-5-yl)-[1,1′-biphenyl]-3-yl)oxy)acetic acid]
29 | ≥ 5.00 | CCOc1cc(-c2nc3[nH]nnc3c(=O)[nH]2)ccc1-c1cccc(OCC(=O)O)c1 [Compound 217, 2-((2′-Ethoxy-4′-(7-oxo-6,7-dihydro-3H-[1,2,3]triazolo[4,5-d]pyrimidin-5-yl)-[1,1′-biphenyl]-3-yl)oxy)acetic acid]
30 | ≥ 5.00 | CCOc1cc(-c2cc(OCC(=O)OC)cc(C(=O)OC)c2)ccc1-c1nc2[nH]nnc2c(=O)[nH]1 [Compound 218, Methyl 3′-ethoxy-5-(2-methoxy-2-oxoethoxy)-4′-(7-oxo-6,7-dihydro-3H-[1,2,3]triazolo[4,5-d]pyrimidin-5-yl)-[1,1′-biphenyl]-3-carboxylate]
31 | ≥ 5.00 | CCOc1cc(-c2cc(OCC(=O)O)cc(C(=O)O)c2)ccc1-c1nc2[nH]nnc2c(=O)[nH]1 [Compound 219, 5-(Carboxymethoxy)-3′-ethoxy-4′-(7-oxo-6,7-dihydro-3H-[1,2,3]triazolo[4,5-d]pyrimidin-5-yl)-[1,1′-biphenyl]-3-carboxylic acid]
